Source: patent publication US20240425523A1, “Compounds for the Degradation of EGFR Kinase” (Beigene Switzerland GMBH, priority 2023, published 2024)

Assays:
Format in all cases: cell-based
[1] = biological target: T1, EGFR L858R (BaF3-L858R cells) (Homo sapiens, UniProt P00533, L858R); assay: Cell degradation of EGFR, HTRF assay, BaF3-L858R cells; conditions: 16 h treatment; for DC50: EGFR degradation; for Dmax: maximum percentage of degradation
T1 construct: host or cells: BaF3
Procedure, shortened: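 BaF3-L858R cells treated 16 h at 37° C, 5% CO2 with compound (top 10 uM final, 5-fold, 8 doses, 0.1% DMSO). DC50 from four-parameter fit; Dmax is maximum percent degradation.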

[2] = biological target: T2, p-EGFR L858R (BaF3-L858R cells) (Homo sapiens, UniProt P00533, L858R); assay: Cell p-EGFR inhibition assay, HTRF, BaF3-L858R cells; conditions: 16 h treatment; for Imax (%): maximum percentage of pEGFR inhibition; for IC50: pEGFR inhibition
T2 construct: host or cells: BaF3
Procedure, shortened: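 BaF3-L858R cells treated 16 h at 37 °C, 5% CO2 with compound from 10 uM top, 5-fold dilutions, 8 doses, in 0.1% DMSO medium. Lysates read overnight by HTRF p-EGFR antibodies; IC50 fitted to four-parameter curve against DMSO high control.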

[3] = biological target: p-EGFR Del19/C797S (H1975-clone #23 cells) (Homo sapiens, UniProt P00533); assay: Cell p-EGFR inhibition assay, HTRF, H1975-clone#23 (DEL19/C797S) cells; conditions: 16 h treatment; for Imax (%): maximum percentage of pEGFR inhibition; for IC50: pEGFR inhibition
Procedure, shortened: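 Phospho-EGFR read by overnight HTRF on lysates, normalized to DMSO-treated high control; IC50, Hill slope and Imax fitted. Compounds were applied for 16 h (10 uM top, 5-fold steps, 8 doses) to an H1975 single clone carrying only exogenous Del19/C797S EGFR after sgRNA knockout of endogenous copies.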

[4] = biological target: T3, EGFR-L858R/C797S (H1975-clone #8 cells) (Homo sapiens, UniProt P00533, C797S/L858R); assay: Cell degradation of EGFR, HTRF assay, H1975-clone#8 (L858R/C797S) cells; conditions: 16 h treatment; for DC50: EGFR degradation; for Dmax: maximum percentage of degradation
T3 construct: expressed in transfected cells; host or cells: H1975 (endogenous EGFR knocked out, clone #8)

Row | DC50 [1] [nM] | Dmax [1] [%] | Imax (%) [2] [%] | IC50 [2] [nM] | Imax (%) [3] [%] | IC50 [3] [nM] | DC50 [4] [nM] | Dmax [4] [%] | SMILES
1 | 8.27 | 89 | 94.16 | 15.2 | 101.78 | 3.6 | 10.7 | 85.4 | COC[C@H]1CN(c2ccc3c(c2)N2C[C@@H]4CC[C@H](COc5c(c(C)nn5C)-c5cc(cc(Cl)n5)C(=O)/N=C/2N3)C4)CCN1C1CCN(c2cc(F)c([C@H]3CCC(=O)NC3=O)c(F)c2)CC1 [Example 176, (R)-3-(4-(4-((R)-4-((7^1R,7^3S,E)-2^6-chloro-1^1,1^3-dimethyl-3-oxo-5^2,5^3-dihydro-1^1H,5^1H-9-oxa-4-aza-5(2,1)-benzo[d]imidazola-2(2,4)-pyridina-1(4,5)-pyrazola-7(1,3)-cyclopentanacyclononaphane-5^6-yl)-2-(methoxymethyl)piperazin-1-yl)piperidin-1-yl)-2,6-difluorophenyl)piperidine-2,6-dione]
2 | 5.38 | 90.8 | 99.14 | 14.4 | 100.7 | 2.85 | 10.6 | 89.6 | Cc1nn(C)c2c1-c1cc(cc(Cl)n1)C(=O)/N=C1\Nc3ccc(N4CCN(C5CCN(c6cc(F)c([C@H]7CCC(=O)NC7=O)c(F)c6)CC5)CC4)cc3N1C[C@@H]1CC[C@H](CO2)C1 [Example 179, (R)-3-(4-(4-(4-((7^1R,7^3S,E)-2^6-chloro-1^1,1^3-dimethyl-3-oxo-5^2,5^3-dihydro-1^1H,5^1H-9-oxa-4-aza-5(2,1)-benzo[d]imidazola-2(2,4)-pyridina-1(4,5)-pyrazola-7(1,3)-cyclopentanacyclononaphane-5^6-yl)piperazin-1-yl)piperidin-1-yl)-2,6-difluorophenyl)piperidine-2,6-dione]
3 | 2.86 | 64.1 | 96.2 | 13.8 | 100.3 | 1.5 | 8.71 | 70.8 | COC[C@@H]1CN(c2cc3c(cc2F)N/C2=N\C(=O)c4cc(C)nc(c4)-c4cnn(C)c4OC[C@H]4CCC(C4)CN23)CCN1C1CCN(c2cc(F)c([C@H]3CCC(=O)NC3=O)c(F)c2)CC1 [Example 87, (R)-3-(2,6-difluoro-4-(4-((S)-4-((7^1R,7^3S,E)-5^5-fluoro-1^1,2^6-dimethyl-3-oxo-5^2,5^3-dihydro-1^1H,5^1H-9-oxa-4-aza-5(2,1)-benzo[d]imidazola-2(2,4)-pyridina-1(4,5)-pyrazola-7(1,3)-cyclopentanacyclononaphane-5^6-yl)-2-(methoxymethyl)piperazin-1-yl)piperidin-1-yl)phenyl)piperidine-2,6-dione]
4 | 6.69 | 82.5 | 97.6 | 16 | 99.8 | 0.8 | 2.45 | 83.3 | COCC1(N2CCN(c3ccc4c(c3)N3CC5CC[C@H](COc6c(cnn6C)-c6cc(cc(C)n6)C(=O)/N=C/3N4)C5)CC2)CCN(c2ccc(C3CCC(=O)NC3=O)nc2C)CC1 (stereo partly shown) [Example 106, 3-(5-(4-(4-((7^1R,7^3S,E)-1^1,2^6-dimethyl-3-oxo-5^2,5^3-dihydro-1^1H,5^1H-9-oxa-4-aza-5(2,1)-benzo[d]imidazola-2(2,4)-pyridina-1(4,5)-pyrazola-7(1,3)-cyclopentanacyclononaphane-5^6-yl)piperazin-1-yl)-4-(methoxymethyl)piperidin-1-yl)-6-methylpyridin-2-yl)piperidine-2,6-dione]
5 | 1.89 | 85.9 | 98.27 | 2.49 | 92.81 | 1.76 | 4.97 | 79.9 | Cc1cc2cc(n1)-c1c(C)nn(C)c1OC[C@H]1CCC(C1)CN1/C(=N/C2=O)Nc2ccc(N3CCN(CC4CCN(c5cc(F)c([C@H]6CCC(=O)NC6=O)c(F)c5)CC4)[C@H](C)C3)cc21 [Example 134, (R)-3-(2,6-difluoro-4-(4-(((R)-2-methyl-4-((7^1R,7^3S,E)-1^1,1^3,2^6-trimethyl-3-oxo-5^2,5^3-dihydro-1^1H,5^1H-9-oxa-4-aza-5(2,1)-benzo[d]imidazola-2(2,4)-pyridina-1(4,5)-pyrazola-7(1,3)-cyclopentanacyclononaphane-5^6-yl)piperazin-1-yl)methyl)piperidin-1-yl)phenyl)piperidine-2,6-dione]
6 | 1.25 | 85.4 | 98.5 | 7.9 | 99.4 | 0.8 | 0.61 | 83.4 | Cc1cc2cc(n1)-c1cnn(C)c1OC[C@H]1CCC(C1)CN1/C(=N/C2=O)Nc2ccc(N3CCC(N4CCC(Nc5cc(F)c([C@H]6CCC(=O)NC6=O)c(F)c5)CC4)CC3)cc21 (single isomer, unassigned) [Example 116]
7 | 3.41 | 86.6 | 100.3 | 6.3 | 100.9 | 0.8 | 3.15 | 82.7 | COC[C@@H]1CN(c2cc3c(cc2C)N/C2=N\C(=O)c4cc(C)nc(c4)-c4cnn(C)c4OC[C@H]4CC[C@H](C4)CN23)CCN1C1CCN(c2cc(F)c([C@H]3CCC(=O)NC3=O)c(F)c2)CC1 [Example 96, (R)-3-(2,6-difluoro-4-(4-((S)-2-(methoxymethyl)-4-((7R,7^3S,E)-1^1,2^6,5^5-trimethyl-3-oxo-5^2,5^3-dihydro-1^1H,5^1H-9-oxa-4-aza-5(2,1)-benzo[d]imidazola-2(2,4)-pyridina-1(4,5)-pyrazola-7(1,3)-cyclopentanacyclononaphane-5^6-yl)piperazin-1-yl)piperidin-1-yl)phenyl)piperidine-2,6-dione]
8 | 3.37 | 77.1 | 95.3 | 16.3 | 100.4 | 0.7 | 2.14 | 81.6 | Cc1cc2cc(n1)-c1cnn(C)c1OC[C@H]1CCC(C1)CN1/C(=N/C2=O)Nc2ccc(N3CCN(C4CCN(c5ccc(NC6CCC(=O)NC6=O)cc5C)CC4)CC3)cc21 (stereo partly shown) [Example 123, 3-((4-(4-(4-((7^1R,7^3S,E)-1^1,2^6-dimethyl-3-oxo-5^2,5^3-dihydro-1^1H,5^1H-9-oxa-4-aza-5(2,1)-benzo[d]imidazola-2(2,4)-pyridina-1(4,5)-pyrazola-7(1,3)-cyclopentanacyclononaphane-5^6-yl)piperazin-1-yl)piperidin-1-yl)-3-methylphenyl)amino)piperidine-2,6-dione]
9 | 7.4 | 76.2 | 101.04 | 2.35 | 100.43 | 2.74 | 0.76 | 70.8 | Cc1cc2cc(n1)-c1c(C)nn(C)c1OC[C@H]1CC[C@H](C1)CN1/C(=N/C2=O)Nc2ccc(N3CC4CCC3CN4C3CCN(c4cc(F)c([C@H]5CCC(=O)NC5=O)c(F)c4)CC3)cc21 [Example 193, (3R)-3-(2,6-difluoro-4-(4-(5-((7^1R,7^3S,E)-1^1,1^3,2^6-trimethyl-3-oxo-5^2,5^3-dihydro-1^1H,5^1H-9-oxa-4-aza-5(2,1)-benzo[d]imidazola-2(2,4)-pyridina-1(4,5)-pyrazola-7(1,3)-cyclopentanacyclononaphane-5^6-yl)-2,5-diazabicyclo[2.2.2]octan-2-yl)piperidin-1-yl)phenyl)piperidine-2,6-dione]
10 | 4.84 | 69.1 | 102.8 | 6.4 | 103.08 | 0.796 | 0.867 | 72 | Cc1cc2cc(n1)-c1cnn(C)c1OC[C@H]1CCC(C1)CN1/C(=N/C2=O)Nc2ccc(N3CCC(CN4CCC(Nc5cc(F)c([C@H]6CCC(=O)NC6=O)c(F)c5)CC4)CC3)cc21 [Example 131, (R)-3-(4-((1-((1-((7^1R,7^3S,E)-1^1,2^6-dimethyl-3-oxo-5^2,5^3-dihydro-1^1H,5^1H-9-oxa-4-aza-5(2,1)-benzo[d]imidazola-2(2,4)-pyridina-1(4,5)-pyrazola-7(1,3)-cyclopentanacyclononaphane-5^6-yl)piperidin-4-yl)methyl)piperidin-4-yl)amino)-2,6-difluorophenyl)piperidine-2,6-dione]
11 | 2.1 | 85.7 | 98.42 | < 0.128 | 102.89 | 1.79 | 1.87 | 94.6 | Cc1cc2cc(n1)-c1c(C)nn(C)c1OC[C@H]1CC[C@H](C1)CN1/C(=N/C2=O)Nc2ccc(N3C[C@@H](C)N(C4CCN(c5cc(F)c([C@H]6CCC(=O)NC6=O)c(F)c5)CC4)C[C@@H]3C)cc21 [Example 200, (R)-3-(4-(4-((2R,5S)-2,5-dimethyl-4-((7^1R,7^3S,E)-1^1,1^3,2^6-trimethyl-3-oxo-5^2,5^3-dihydro-1^1H,5^1H-9-oxa-4-aza-5(2,1)-benzo[d]imidazola-2(2,4)-pyridina-1(4,5)-pyrazola-7(1,3)-cyclopentanacyclononaphane-5^6-yl)piperazin-1-yl)piperidin-1-yl)-2,6-difluorophenyl)piperidine-2,6-dione]
